Measured values from patent US20240352429A1, “AGENT FOR INDUCING VIRAL VECTOR PRODUCTION” (priority 2021, published 2024).

Key:
[1] = system: suspension HEK293 cells (FreeStyle 293F cell); assay type: cell-based; conditions: for titer of adeno-associated virus vector in the cell-derived sample, various cell growth inhibitors A: nocodazole 500 nM, benzimidazoles 50 μM, 5 μM, 500 nM, vinblastine sulfate, colcemid, taxanes 5 μM, 100 nM, FIG. 3 to 7
suspension HEK293 cells [2] = experiment: Titer of adeno-associated virus vector (AAV2) by quantitative PCR after introducing linear covalently closed DNA (LCC DNA) with PEI; assay type: cell-based; conditions: for titer of adeno-associated virus vector from the cell-derived sample, LCC DNA: DMSO as solubilizer, nocodazole 500 nM added 1 minute after introduction, oxibendazole 50 μM, 5 μM, 500 nM, 50 nM, FIG. 11
Method: On the day of introduction of the nucleic acid into the cells, the suspension HEK293 cells were seeded in a 50-mL centrifuge tube equipped with a filter cap, with the number of cells being adjusted to 1×10^6 cells/mL (an amount of culture medium of 5 mL).
In the condition where a linear covalently closed DNA was used as the nucleic acid to be introduced into the cells, RC2_LCC_DNA (1 μg/μL, 4 μL, packaging plasmid DNA), Venus_LCC_DNA (1 μg/μL, 1 μL, vector plasmid DNA), Helper_LCC_DNA (1 μg/μL, 1 μL, helper plasmid DNA), and PEI MAX (1 μg/μL, 12 μL, Polysciences Inc.) as polyethylenimine (PEI) were mixed and left to stand in Opti-MEM (Thermo Fisher Scientific K.K.) for production of a LCC DNA-PEI mixed solution. Nucleic acids were introduced into the cells by adding the LCC DNA-PEI mixed solution to the cell culture medium. Thereafter, AAV2 was produced by culturing at 37° C. in the presence of 8% CO2 for 4 days.
Extraction and quantification of the adeno-associated virus vector were carried out by the same methods as in Example 1.
When the cell growth inhibitor A was oxibendazole (Tokyo Chemical Industry Co., Ltd.), DMSO was used as a solubilizer, and oxibendazole was added to the cell culture medium so that the final concentrations of oxibendazole were four kinds of concentrations, i.e., 50 μM, 5 μM, 500 nM, and 50 nM.

virus-like particles = conditions: known from Non Patent Literature 1; cited from earlier work
suspension HEK293 cells [3] = experiment: Titer of adeno-associated virus vector (AAV2) produced with a bioreactor (400 mL culture medium), quantitative PCR; assay type: cell-based; conditions: nocodazole final 500 nM in DMSO, added 4 hours after introduction of the nucleic acid; vs w/o; FIG. 9
Method: On the day of introduction of a nucleic acid into the cells, the suspension HEK293 cells were seeded in a bioreactor (animal cell culture apparatus BCP, volume 1 L, ABLE Corporation), with the number of cells being adjusted to 1×10^6 cells/mL (in an amount of culture medium of 400 mL).
pRC2-mi342 (1 μg/μL, 240 μL, packaging plasmid DNA), pAAV-Venus (1 μg/μL, 80 μL, vector plasmid DNA), pHelper (1 μg/μL, 160 μL, helper plasmid DNA), and PEI MAX (1 μg/μL, 960 μL, Polysciences Inc.) as polyethylenimine (PEI) were mixed and left to stand in Opti-MEM (Thermo Fisher Scientific K.K.) for production of a double-stranded circular plasmid DNA-PEI mixed solution.
Nucleic acids were introduced into the cells by adding the double-stranded circular plasmid DNA-PEI mixed solution to the cell culture medium. Thereafter, AAV2 was produced by culturing at 37° C. in the presence of 8% CO2 for 4 days.
Four days after introduction of the nucleic acid into the cells, the supernatant and the cells were separated, PEG8000 (Sigma-Aldrich Co. LLC) was added to the supernatant obtained, and the adeno-associated virus vector was concentrated. Triton X-100 (Sigma-Aldrich Co. LLC) was added to the residual for cell lysis, and thereafter KANEKA Endonuclease (KANEKA CORPORATION) was added for degradation of DNA. […]
Quantification of the adeno-associated virus was performed by the same method as in Example 1.

[4] = added 4 hours after introduction of the nucleic acid, DMSO as solubilizer

SMILES: CC(=O)O[C@@]12CO[C@@H]1C[C@H](O)[C@@]1(C)C(=O)[C@H](O)C3=C(C)[C@@H](OC(=O)[C@H](O)[C@@H](NC(=O)OC(C)(C)C)c4ccccc4)C[C@@](O)([C@@H](OC(=O)c4ccccc4)[C@H]21)C3(C)C [docetaxel]
- titer of adeno-associated virus vector in the cell-derived sample, various cell growth inhibitors A [1, 4]: improved

SMILES: CC[C@]1(O)C[C@@H]2CN(CCc3c([nH]c4ccccc34)[C@@](C(=O)OC)(c3cc4c(cc3OC)N(C)[C@H]3[C@@](O)(C(=O)OC)[C@H](OC(C)=O)[C@]5(CC)C=CCN6CC[C@]43[C@@H]65)C2)C1 [vinblastine]
- titer of adeno-associated virus vector in the cell-derived sample, various cell growth inhibitors A [1, 4]: improved

SMILES: CCCSc1ccc2nc(NC(=O)OC)[nH]c2c1 [albendazole]
- titer of adeno-associated virus vector in the cell-derived sample, various cell growth inhibitors A [1, 4]: improved

SMILES: CC(=O)O[C@H]1C(=O)[C@@]2(C)[C@H]([C@H](OC(=O)c3ccccc3)[C@]3(O)C[C@H](OC(=O)[C@H](O)[C@@H](NC(=O)c4ccccc4)c4ccccc4)C(C)=C1C3(C)C)[C@]1(OC(C)=O)CO[C@@H]1C[C@@H]2O [paclitaxel]
- titer of adeno-associated virus vector in the cell-derived sample, various cell growth inhibitors A [1, 4]: improved

SMILES: COC(=O)Nc1nc2ccc(C(=O)c3cccs3)cc2[nH]1 [nocodazole]
- titer of adeno-associated virus vector from the cell-derived sample, LCC DNA (suspension HEK293 cells [2]): increased
- increase of the titer of adeno-associated virus vector (cell-derived sample), linear covalently closed DNA (suspension HEK293 cells [2]; nocodazole 500 nM in DMSO, added 1 minute after introduction of the nucleic acid, vs w/o, FIG. 10): fourteenfold
- titer of adeno-associated virus vector in the cell-derived sample, various cell growth inhibitors A [1, 4]: improved
- total titer of adeno-associated virus vector (cell-derived sample and supernatant-derived sample) ([1]; final concentration from 250 nM to 2 μM, DMSO as solubilizer, added 4 hours after introduction of the nucleic acid, 4 days culture, vs 0 nM (DMSO only), FIG. 1): improved
- effect of improving the titer of adeno-associated virus vector (cell-derived sample) compared with sodium valproate ([1]; nocodazole 500 nM in DMSO vs sodium valproate (VPA) 1, 2.5, 5, 10 or 12.5 mM in water, FIG. 8): larger
- increase of the titer of adeno-associated virus vector (cell-derived sample), double-stranded circular plasmid DNA ([1]; nocodazole 500 nM in DMSO, added 1 minute after introduction of the nucleic acid, pDNA, vs w/o, FIG. 10): eightfold
- titer of adeno-associated virus vector in the cell-derived sample, influence of timing of addition ([1]; nocodazole final 500 nM in DMSO, added between 24 hours before and 4 hours after introduction of the nucleic acid, vs DMSO only, FIG. 2): improved
- productivity of virus-like particles (virus-like particles): reduces
- total titer of adeno-associated virus vector (cell-derived and supernatant-derived sample) at bioreactor scale (suspension HEK293 cells [3]): reproduced

SMILES: COC(=O)Nc1nc2ccc(Sc3ccccc3)cc2[nH]1 [fenbendazole]
- titer of adeno-associated virus vector in the cell-derived sample, various cell growth inhibitors A [1, 4]: improved

SMILES: CCCOc1ccc2nc(NC(=O)OC)[nH]c2c1 [oxibendazole]
- titer of adeno-associated virus vector from the cell-derived sample, LCC DNA (suspension HEK293 cells [2]): increased
